Measured values from article PMC5688144, “Assay interference and off-target liabilities of reported histone acetyltransferase inhibitors” (Nature Communications, 2017).
Like-named read-outs stand apart in the source and are kept apart here.

Columns and labels:
GCN5 = details: cited from earlier work
Absorbance spectra = type: physicochemical; details: for Absorption max (nm) / Absorbance counter-screen: 25 mM sodium phosphate, pH 7.0; for Absorbance counter-screen: 300-750 nm; for Molar absorptivity: at absorption max
Outline: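 Spectra from 300 to 750 nm were recorded at 100, 50 and 10 μM final compound in 25 mM sodium phosphate pH 7.0 with 2.0% DMSO, after 10 min at RT, read at 25 °C. Significant absorbance meant molar absorptivity above 2000 M^−1 cm^−1 at wavelengths above 300 nm.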

five tested HATs = test: HAT selectivity panel with DTT (Reaction Biology); type: biochemical; details: 10 μM compound; DTT in reaction buffer
Protocol: Selectivity profiles vs. HATs, HDACs, SIRTs, HMTs, proteases, kinases, and phosphatases were performed by Reaction Biology Corporation (Malvern, PA; Fig. 3 and Supplementary Fig. 3). Percent activity was normalized to DMSO-only controls. Reference control compounds were included in each assay.
Relevant reaction procedures for each target class are briefly summarized (see reactionbiology.com for additional details). HATs: reaction buffer 50 mM Tris–HCl, pH 8.0, 50 mM NaCl, 0.1 mM EDTA, ± 1 mM DTT, 1 mM PMSF, 1% DMSO; substrate [^3H]-acetyl-CoA; reaction time 1 h; end-point measurement. HDACs: reaction buffer 50 mM Tris–HCl, pH 8.0, 137 mM NaCl, 2.7 mM KCl, 1 mM MgCl2, 1 mg mL^−1 BSA, 1% DMSO; fluorogenic substrate p53 residues 379–382 (RHKK(Ac)-AMC) (HDAC1/2/3/6/10), fluorogenic substrate p53 residues 379–382 (RHK(Ac)K(Ac)AMC) (HDAC8); fluorogenic substrate trifluoroacetyl lysine (HDAC4/5/7/9/11); pre-incubation included; reaction time 1–2 h; trichostatin A or TMP269 quencher; fluorescent readout λexcite = 360 nm, λemission = 460 nm; end-point measurement. SIRTs: reaction buffer 50 mM Tris–HCl, pH 8.0, 137 mM NaCl, 2.7 mM KCl, 1 mM MgCl2, 1 mg mL^−1 BSA, 1% DMSO; fluorogenic substrate p53 residues 379–382 (RHKK(Ac)-AMC) (SIRT1/2/3); fluorogenic substrate Ac-Lys(Succ)-AMC (SIRT5); substrate: 500 µM NAD^+; reaction time 2 h; nicotinamide quencher; fluorescent readout λexcite = 360 nm, λemission = 460 nm; end-point measurement (1.5 h development). HMTs: reaction buffer 50 mM Tris–HCl, pH 8.0, 0.01% Brij35, 1 mM EDTA, 1 mM DTT, 1 mM PMSF, 1% DMSO (EZH2); reaction buffer 50 mM Tris–HCl, pH 7.5, 5 mM EDTA, 0.01% Brij35, 5 mM DTT, 0.1 mM PMSF, 5% glycerol, 1% DMSO; 50 mM Tris–HCl, pH 8.5, 5 mM MgCl2, 50 mM NaCl, 0.01 Brij35, 1 mM DTT, 1% DMSO (G9a); methyl donor 1 μM S-Adenosyl-L-[methyl-^3H]-methionine; substrate 5 μM histone proteins or 0.05 mg mL^−1 nucleosomes; pre-incubation time 10–15 min; reaction time 0.5–1 h; end-point measurement. Caspases: reaction buffer 50 mM HEPES, pH 7.4, 1 M citrate, 100 mM NaCl, 0.01% CHAPS, 0.1 mM EDTA, 10 mM DTT; fluorogenic peptide substrate; pre-incubation time 10 min; reaction time 2 h; time-course measurement. Kinases: reaction buffer 20 mM HEPES, pH 7.5, 10 mM MgCl2, 1 mM EGTA, 0.02% Brij35, 0.02 mg mL^−1 BSA, 0.1 mM Na3VO4, 2 mM DTT, 1% DMSO; substrate [^33P]-ATP; reaction time 2 h; end-point measurement.

AmpC β-lactamase = target: T1, AmpC β-lactamase (Escherichia coli, UniProt P00811); test: biochemical; design: species or system E. coli; details: for AmpC counter-screen result / AmpC aggregation counter-screen: 10 μM compound; for AmpC counter-screen result: detergent-sensitive modulation; for AmpC aggregation counter-screen: ± 0.01% Triton X-100
T1 construct: Recombinant E. coli AmpC (amino acids 20–377); purchased MyBioSource.com
Outline: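 Compounds at 10 μM (2% DMSO, triplicate) were preincubated 5 min at RT with ~5 nM E. coli AmpC (residues 20–377) in 25 mM sodium phosphate pH 7.0, with or without 0.01% Triton X-100, then given 100 μM nitrocefin. Activity was normalized to DMSO; aggregation was called on a detergent-dependent change >30% (adjusted P <0.05).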

p300/CBP = details: original report; 27 (Supplementary References); cited from earlier work
PCAF = target: T2, PCAF (Homo sapiens, UniProt Q92831); details: cited from earlier work
T2 construct: Reaction Biology Corporation (assays run by this contract lab)

CBP = details: original report; 22 (Supplementary References); cited from earlier work
[1] = @ 10 µM, ref 5 (Supplementary References)
[2] = @ 5 µM, ref 16 (Supplementary References)

T1 sequence (P00811 20-377): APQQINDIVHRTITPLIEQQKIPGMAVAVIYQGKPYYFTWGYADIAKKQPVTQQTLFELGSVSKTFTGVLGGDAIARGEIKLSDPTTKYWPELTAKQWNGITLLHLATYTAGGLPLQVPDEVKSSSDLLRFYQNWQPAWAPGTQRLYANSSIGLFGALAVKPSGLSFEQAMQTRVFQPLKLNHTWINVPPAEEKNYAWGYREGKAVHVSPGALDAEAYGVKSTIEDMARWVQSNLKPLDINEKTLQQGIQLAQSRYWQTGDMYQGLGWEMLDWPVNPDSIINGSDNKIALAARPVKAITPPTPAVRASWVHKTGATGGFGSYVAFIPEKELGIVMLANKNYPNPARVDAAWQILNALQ
T2 sequence (Q92831 whole entry, species assumed): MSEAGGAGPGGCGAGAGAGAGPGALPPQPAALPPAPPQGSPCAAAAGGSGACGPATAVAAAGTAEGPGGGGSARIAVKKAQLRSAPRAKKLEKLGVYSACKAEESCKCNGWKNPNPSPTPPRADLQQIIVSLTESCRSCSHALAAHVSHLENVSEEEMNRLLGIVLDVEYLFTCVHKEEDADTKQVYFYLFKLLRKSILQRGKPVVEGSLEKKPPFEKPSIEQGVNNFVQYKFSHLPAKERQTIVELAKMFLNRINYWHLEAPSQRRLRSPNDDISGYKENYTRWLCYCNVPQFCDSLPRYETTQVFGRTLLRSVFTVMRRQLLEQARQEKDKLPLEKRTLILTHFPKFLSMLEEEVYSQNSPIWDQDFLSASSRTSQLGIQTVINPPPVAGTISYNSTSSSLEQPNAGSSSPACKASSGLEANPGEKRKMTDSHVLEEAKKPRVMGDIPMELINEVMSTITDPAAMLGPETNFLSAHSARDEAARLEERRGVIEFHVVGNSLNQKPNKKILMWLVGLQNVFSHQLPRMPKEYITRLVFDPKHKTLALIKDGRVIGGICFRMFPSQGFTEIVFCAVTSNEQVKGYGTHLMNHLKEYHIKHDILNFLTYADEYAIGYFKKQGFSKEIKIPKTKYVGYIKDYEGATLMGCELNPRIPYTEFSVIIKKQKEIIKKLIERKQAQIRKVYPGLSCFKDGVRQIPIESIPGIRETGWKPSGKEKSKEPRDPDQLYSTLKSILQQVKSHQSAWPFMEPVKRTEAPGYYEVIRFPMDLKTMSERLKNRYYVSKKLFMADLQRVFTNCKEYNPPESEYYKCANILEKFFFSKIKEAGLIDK

Compound | % inhibition, GCN5 (GCN5; [1]) [%] | Absorption max (nm) (Absorbance spectra) | Absorbance counter-screen (Absorbance spectra) | Molar absorptivity (Absorbance spectra) [M⁻¹ cm⁻¹] | activity vs. the five tested HATs (five tested HATs) | AmpC counter-screen result (AmpC β-lactamase) | AmpC aggregation counter-screen (AmpC β-lactamase) | inhibition at 10 µM (AmpC β-lactamase; read-out: % Inhibition, AmpC) [%] | IC50 (p300/CBP) [µM] | % inhibition, PCAF (PCAF; [1]) [%] | IC50 (PCAF; H4 peptide substrate, ref 7 (Supplementary References)) [µM] | IC50 (CBP) [µM] | % inhibition, GCN5 (GCN5; [2]) [%] | % inhibition, PCAF (PCAF; [2]) [%] | IC50 (GCN5; original report, 22 (Supplementary References)) [µM] | IC50 (PCAF; original report, 27 (Supplementary References)) [µM]
CC1=NN(c2ccc(C(=O)O)cc2)C(=O)/C1=C/c1ccc(-c2cc(C)c(C)cc2[N+](=O)[O-])o1 [Compound 1, C646] | < 10 | 405 | Flagged (Significant absorbance was defined as molar absorptivity constants greater than 2000 M^−1 cm^−1 at wavelengths greater than 300 nm) | 18000 | potent inhibition of at least one HAT | likely aggregators | Detergent-sensitive (activator) | -58 ± 56 | […] | < 10 |  |  |  |  |  | 
O=c1c2cccnc2sn1Cc1ccc(C(F)(F)F)cc1 [Compound 3, PU141] |  | 315 | Flagged (Significant absorbance was defined as molar absorptivity constants greater than 2000 M^−1 cm^−1 at wavelengths greater than 300 nm) | 2700 | minimal activity |  | Detergent-insensitive |  |  |  | 35.5 |  |  |  |  | 
Cc1cc(O)cc(C)c1C=C1C(=O)N(Cc2ccccc2)C(=O)N(Cc2ccccc2)C1=O [Compound 4, EML425] |  | 425 | Flagged (Significant absorbance was defined as molar absorptivity constants greater than 2000 M^−1 cm^−1 at wavelengths greater than 300 nm) | 2700 | potent inhibition of at least one HAT | likely aggregators | Detergent-sensitive (Aggregators were defined as compounds with significant detergent-dependent changes in AmpC activity (t-test, adjusted P-value <0.05; mean differences greater than 30%)) |  |  |  |  | 1.1 |  |  |  | 
O=C1/C(=C/c2ccc(O)c(Br)c2)CCC/C1=C\c1ccc(O)c(Br)c1 [Compound 12, HAT inhibitor II] |  | 355 | Flagged (Significant absorbance was defined as molar absorptivity constants greater than 2000 M^−1 cm^−1 at wavelengths greater than 300 nm) | 5100 | potent inhibition of at least one HAT |  | Detergent-sensitive (Aggregators were defined as compounds with significant detergent-dependent changes in AmpC activity (t-test, adjusted P-value <0.05; mean differences greater than 30%)) |  | 5 |  |  |  | 30 | < 1 |  | 
COc1ccc(/C(Cl)=C(/C=O)c2ccc(OC)cc2)cc1 [Compound 18, Windorphen] |  | 345 | Flagged (Significant absorbance was defined as molar absorptivity constants greater than 2000 M^−1 cm^−1 at wavelengths greater than 300 nm) | 4300 | minimal activity |  | Detergent-insensitive |  |  |  |  | 51.3 |  |  | > 100 | > 100
Garcinol [Compound 13] |  | 290 | Negative |  | potent inhibition of at least one HAT |  | Detergent-sensitive (Aggregators were defined as compounds with significant detergent-dependent changes in AmpC activity (t-test, adjusted P-value <0.05; mean differences greater than 30%)) |  | 5 |  |  |  |  |  |  | 
